Test results taken from ChEMBL document CHEMBL3046040, “Synthesis, cytostatic and anti-viral activity evaluation of the novel acyclic nucleoside analogues containing a sterically constrained (Z)-4-amino-2-butenyl moiety” (Med Chem Res, 2011).
Calls of active or inactive are those of the source. The rule behind the calls is not given here.

Each compound was assayed on WI-38 (assay: Antiproliferative activity against Homo sapiens (human) WI38 cells by MTT assay). Details: not given.
Type: cell-based

| SMILES | IC50 [µM] |
| --- | --- |
| NCCCCn1cnc2c(-n3cccc3)ncnc21 | > 100 |
| NC/C=C\Cn1cnc2c(N)nc(N)nc21 [listing 1 of 3 here] | > 100 |
| NC/C=C\Cn1cnc2c(N)ncnc21 | 69.1 |

Each compound was assayed on SW-620 (assay: Antiproliferative activity against Homo sapiens (human) SW620 cells by MTT assay). Details: Homo sapiens, SW-620.
Type: functional, cell-based

| SMILES | IC50 [µM] |
| --- | --- |
| NCCCCn1cnc2c(-n3cccc3)ncnc21 | 40.5 |
| NC/C=C\Cn1cnc2c(N)nc(N)nc21 [listing 1 of 3 here] | > 100 |
| NC/C=C\Cn1cnc2c(N)ncnc21 | 77.1 |

Same assay, conditions: sw-620

| SMILES | IC50 [µM] |
| --- | --- |
| NC/C=C\Cn1cnc2c(N)nc(N)nc21 [listing 2 of 3 here] | 98.8 |

The compounds below were run on MIA PaCa-2 (assay: Antiproliferative activity against Homo sapiens (human) MIAPaCa2 cells by MTT assay). Details: not given.
Type: functional, cell-based

| SMILES | IC50 [µM] |
| --- | --- |
| NCCCCn1cnc2c(-n3cccc3)ncnc21 | > 100 |
| NC/C=C\Cn1cnc2c(N)nc(N)nc21 [listing 1 of 3 here] | > 100 |
| NC/C=C\Cn1cnc2c(N)ncnc21 | > 100 |

These compounds were tested on MCF7 (assay: Antiproliferative activity against Homo sapiens (human) MCF7 cells by MTT assay). Details: not given.
Type: functional, cell-based

| SMILES | IC50 [µM] |
| --- | --- |
| NCCCCn1cnc2c(-n3cccc3)ncnc21 | > 100 |
| NC/C=C\Cn1cnc2c(N)nc(N)nc21 [listing 1 of 3 here] | > 100 |
| NC/C=C\Cn1cnc2c(N)ncnc21 | > 100 |

Each compound was assayed on HepG2 (assay: Antiproliferative activity against Homo sapiens (human) HepG2 cells by MTT assay). Details: not given.
Type: functional, cell-based

| SMILES | IC50 [µM] |
| --- | --- |
| NCCCCn1cnc2c(-n3cccc3)ncnc21 | 74.2 |
| NC/C=C\Cn1cnc2c(N)nc(N)nc21 [listing 1 of 3 here] | > 100 |
| NC/C=C\Cn1cnc2c(N)ncnc21 | > 100 |

The compounds below were run on HeLa (assay: Antiproliferative activity against Homo sapiens (human) HeLa cells by MTT assay). Details: not given.
Type: functional, cell-based

| SMILES | Activity | IC50 [µM] |
| --- | --- | --- |
| NCCCCn1cnc2c(-n3cccc3)ncnc21 | Dose-dependent effect | 10.9 |
| NC/C=C\Cn1cnc2c(N)nc(N)nc21 [listing 1 of 3 here] | – | > 100 |
| NC/C=C\Cn1cnc2c(N)ncnc21 | – | > 100 |

These compounds were tested on CCRF-CEM (assay: Cytostatic activity against Homo sapiens (human) CEM cells after 72 hr by Coulter counting analysis). Details: not given.
Type: functional, cell-based

| SMILES | IC50 [µM] |
| --- | --- |
| NCCCCn1cnc2c(-n3cccc3)ncnc21 | 115 |
| NC/C=C\Cn1cnc2c(N)nc(N)nc21 [listing 1 of 3 here] | > 500 |
| NC/C=C\Cn1cnc2c(N)ncnc21 | 340 |

These compounds were tested on MOLT-4 (assay: Cytostatic activity against Homo sapiens (human) Molt4/C8 cells after 72 hr by Coulter counting analysis). Details: MOLT-4, 72 h.
Type: functional, cell-based

| SMILES | IC50 [µM] |
| --- | --- |
| NCCCCn1cnc2c(-n3cccc3)ncnc21 | 140 |
| NC/C=C\Cn1cnc2c(N)nc(N)nc21 [listing 1 of 3 here] | > 500 |
| NC/C=C\Cn1cnc2c(N)ncnc21 | 248 |

These compounds were tested on L1210 (assay: Cytostatic activity against Mus musculus (mouse) L1210 cells after 48 hr by Coulter counting analysis). Details: Mus musculus, L1210, 48 h.
Type: functional, cell-based

| SMILES | IC50 [µM] |
| --- | --- |
| NCCCCn1cnc2c(-n3cccc3)ncnc21 | 91 |
| NC/C=C\Cn1cnc2c(N)nc(N)nc21 [listing 1 of 3 here] | > 500 |
| NC/C=C\Cn1cnc2c(N)ncnc21 | 276 |

Same assay, conditions: l1210

| SMILES | IC50 [µM] |
| --- | --- |
| NC/C=C\Cn1cnc2c(N)nc(N)nc21 [listing 2 of 3 here] | 350 |

What follows are compounds tested on Influenza A virus H3N2 (assay: Antiviral activity against Influenza A virus H3N2 infected MDCK cells assessed as inhibition of virus-induced cytopathic effect). Details: not given.
Type: functional, organism-based

| SMILES | Activity |
| --- | --- |
| NCCCCn1cnc2c(-n3cccc3)ncnc21 | inactive |
| NC/C=C\Cn1cnc2c(N)nc(N)nc21 [listing 3 of 3 here] | inactive |
| NC/C=C\Cn1cnc2c(N)ncnc21 | inactive |
| NCCCCn1cnc2c(N)nc(N)nc21 | inactive |
| NC/C=C\Cn1ccc(=O)[nH]c1=O | inactive |

These compounds were tested on Influenza B virus (assay: Antiviral activity against Influenza B virus infected MDCK cells assessed as inhibition of virus-induced cytopathic effect). Details: not given.
Type: functional, organism-based

| SMILES | Activity |
| --- | --- |
| NCCCCn1cnc2c(-n3cccc3)ncnc21 | inactive |
| NC/C=C\Cn1cnc2c(N)nc(N)nc21 [listing 3 of 3 here] | inactive |
| NC/C=C\Cn1cnc2c(N)ncnc21 | inactive |
| NCCCCn1cnc2c(N)nc(N)nc21 | inactive |
| NC/C=C\Cn1ccc(=O)[nH]c1=O | inactive |

These compounds were tested on Influenza A virus (assay: Antiviral activity against Unidentified Influenza A virus ([…]) infected MDCK cells assessed as inhibition of virus-induced cytopathic effect). Details: Influenza A virus (H1N1).
Type: functional, organism-based

| SMILES | Activity |
| --- | --- |
| NCCCCn1cnc2c(-n3cccc3)ncnc21 | inactive |
| NC/C=C\Cn1cnc2c(N)nc(N)nc21 [listing 3 of 3 here] | inactive |
| NC/C=C\Cn1cnc2c(N)ncnc21 | inactive |
| NCCCCn1cnc2c(N)nc(N)nc21 | inactive |
| NC/C=C\Cn1ccc(=O)[nH]c1=O | inactive |

These compounds were tested on Respiratory syncytial virus (assay: Antiviral activity against Respiratory syncytial virus infected HeLa cells assessed as inhibition of virus-induced cytopathic effect). Details: not given.
Type: functional, organism-based

| SMILES | Activity |
| --- | --- |
| NCCCCn1cnc2c(-n3cccc3)ncnc21 | inactive |
| NC/C=C\Cn1cnc2c(N)nc(N)nc21 [listing 3 of 3 here] | inactive |
| NC/C=C\Cn1cnc2c(N)ncnc21 | inactive |
| NCCCCn1cnc2c(N)nc(N)nc21 | inactive |
| NC/C=C\Cn1ccc(=O)[nH]c1=O | inactive |

These compounds were tested on Coxsackievirus B4 (assay: Antiviral activity against Human coxsackievirus B4 infected HeLa cells assessed as inhibition of virus-induced cytopathic effect). Details: not given.
Type: functional, organism-based

| SMILES | Activity |
| --- | --- |
| NCCCCn1cnc2c(-n3cccc3)ncnc21 | inactive |
| NC/C=C\Cn1cnc2c(N)nc(N)nc21 [listing 3 of 3 here] | inactive |
| NC/C=C\Cn1cnc2c(N)ncnc21 | inactive |
| NCCCCn1cnc2c(N)nc(N)nc21 | inactive |
| NC/C=C\Cn1ccc(=O)[nH]c1=O | inactive |

Each compound was assayed on Vesicular stomatitis virus (assay: Antiviral activity against Vesicular stomatitis virus infected HeLa cells assessed as inhibition of virus-induced cytopathic effect). Details: not given.
Type: functional, organism-based

| SMILES | Activity |
| --- | --- |
| NCCCCn1cnc2c(-n3cccc3)ncnc21 | inactive |
| NC/C=C\Cn1cnc2c(N)nc(N)nc21 [listing 3 of 3 here] | inactive |
| NC/C=C\Cn1cnc2c(N)ncnc21 | inactive |
| NCCCCn1cnc2c(N)nc(N)nc21 | inactive |
| NC/C=C\Cn1ccc(=O)[nH]c1=O | inactive |

The compounds below were run on Punta Toro virus (assay: Antiviral activity against Punta Toro virus infected Vero cells assessed as inhibition of virus-induced cytopathic effect). Details: not given.
Type: functional, organism-based

| SMILES | Activity |
| --- | --- |
| NCCCCn1cnc2c(-n3cccc3)ncnc21 | inactive |
| NC/C=C\Cn1cnc2c(N)nc(N)nc21 [listing 3 of 3 here] | inactive |
| NC/C=C\Cn1cnc2c(N)ncnc21 | inactive |
| NCCCCn1cnc2c(N)nc(N)nc21 | inactive |
| NC/C=C\Cn1ccc(=O)[nH]c1=O | inactive |

What follows are compounds tested on Coxsackievirus B4 (assay: Antiviral activity against Human coxsackievirus B4 infected Vero cells assessed as inhibition of virus-induced cytopathic effect). Details: not given.
Type: functional, organism-based

| SMILES | Activity |
| --- | --- |
| NCCCCn1cnc2c(-n3cccc3)ncnc21 | inactive |
| NC/C=C\Cn1cnc2c(N)nc(N)nc21 [listing 3 of 3 here] | inactive |
| NC/C=C\Cn1cnc2c(N)ncnc21 | inactive |
| NCCCCn1cnc2c(N)nc(N)nc21 | inactive |
| NC/C=C\Cn1ccc(=O)[nH]c1=O | inactive |

Each compound was assayed on Sindbis virus (assay: Antiviral activity against Sindbis virus infected Vero cells assessed as inhibition of virus-induced cytopathic effect). Details: not given.
Type: functional, organism-based

| SMILES | Activity |
| --- | --- |
| NCCCCn1cnc2c(-n3cccc3)ncnc21 | inactive |
| NC/C=C\Cn1cnc2c(N)nc(N)nc21 [listing 3 of 3 here] | inactive |
| NC/C=C\Cn1cnc2c(N)ncnc21 | inactive |
| NCCCCn1cnc2c(N)nc(N)nc21 | inactive |
| NC/C=C\Cn1ccc(=O)[nH]c1=O | inactive |

These compounds were tested on Reovirus sp. (assay: Antiviral activity against Mammalian orthoreovirus 1 infected Vero cells assessed as inhibition of virus-induced cytopathic effect). Details: not given.
Type: functional, organism-based

| SMILES | Activity |
| --- | --- |
| NCCCCn1cnc2c(-n3cccc3)ncnc21 | inactive |
| NC/C=C\Cn1cnc2c(N)nc(N)nc21 [listing 3 of 3 here] | inactive |
| NC/C=C\Cn1cnc2c(N)ncnc21 | inactive |
| NCCCCn1cnc2c(N)nc(N)nc21 | inactive |
| NC/C=C\Cn1ccc(=O)[nH]c1=O | inactive |

These compounds were tested on Human respirovirus 3 (assay: Antiviral activity against Human parainfluenza virus 3 infected Vero cells assessed as inhibition of virus-induced cytopathic effect). Details: not given.
Type: functional, organism-based

| SMILES | Activity |
| --- | --- |
| NCCCCn1cnc2c(-n3cccc3)ncnc21 | inactive |
| NC/C=C\Cn1cnc2c(N)nc(N)nc21 [listing 3 of 3 here] | inactive |
| NC/C=C\Cn1cnc2c(N)ncnc21 | inactive |
| NCCCCn1cnc2c(N)nc(N)nc21 | inactive |
| NC/C=C\Cn1ccc(=O)[nH]c1=O | inactive |

These compounds were tested on Human alphaherpesvirus 2 (assay: Antiviral activity against Human herpesvirus 2 strain G infected HEL cells assessed as inhibition of virus-induced cytopathic effect). Details: not given.
Type: functional, organism-based

| SMILES | Activity |
| --- | --- |
| NCCCCn1cnc2c(-n3cccc3)ncnc21 | inactive |
| NC/C=C\Cn1cnc2c(N)nc(N)nc21 [listing 3 of 3 here] | inactive |
| NC/C=C\Cn1cnc2c(N)ncnc21 | inactive |
| NCCCCn1cnc2c(N)nc(N)nc21 | inactive |
| NC/C=C\Cn1ccc(=O)[nH]c1=O | inactive |

These compounds were tested on Human alphaherpesvirus 1 (assay: Antiviral activity against Human herpesvirus 1 strain KOS infected in HEL cells assessed as inhibition of virus-induced cytopathic effect). Details: not given.
Type: functional, organism-based

| SMILES | Activity |
| --- | --- |
| NCCCCn1cnc2c(-n3cccc3)ncnc21 | inactive |
| NC/C=C\Cn1cnc2c(N)nc(N)nc21 [listing 3 of 3 here] | inactive |
| NC/C=C\Cn1cnc2c(N)ncnc21 | inactive |
| NCCCCn1cnc2c(N)nc(N)nc21 | inactive |
| NC/C=C\Cn1ccc(=O)[nH]c1=O | inactive |
